pIC50: −log10 of the molar value. Where a name gives a salt, the structure may show the parent alone.
The molecules below were run against T1, human PAR-2 (hPAR-2) receptor expressed in HEK-293 T cells in an endogenous manner (Homo sapiens, UniProt P55085) (assay: In vitro human PAR-2 functional antagonist activity using calcium assays (Fluo4AM, FLIPR Tetra)). Settings: HEK-293 T cells stimulated by an EC80 of the 2-Furoyl-LIGRLO-NH2 peptide after 10 min incubation with compound; 20 concentrations, duplicate, two independent experiments.
T1 construct: human PAR-2 (hPAR-2) receptor expressed in HEK-293 T cells in an endogenous manner; endogenous in cells; host or cells: HEK-293 T cells
T1 sequence (P55085 26-397): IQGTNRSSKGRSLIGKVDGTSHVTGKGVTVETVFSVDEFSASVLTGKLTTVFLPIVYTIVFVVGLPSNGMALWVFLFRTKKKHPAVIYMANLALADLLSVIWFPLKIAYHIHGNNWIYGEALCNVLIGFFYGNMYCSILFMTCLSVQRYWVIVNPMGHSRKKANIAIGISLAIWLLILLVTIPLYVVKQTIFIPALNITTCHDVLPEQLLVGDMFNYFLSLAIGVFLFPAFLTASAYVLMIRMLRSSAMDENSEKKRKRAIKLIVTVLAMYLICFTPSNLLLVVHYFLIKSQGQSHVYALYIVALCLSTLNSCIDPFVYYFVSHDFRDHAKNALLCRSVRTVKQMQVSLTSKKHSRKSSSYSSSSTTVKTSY
Type: cell-based
Method: In vitro human PAR-2 functional antagonist activity using calcium assays
Examples of the present invention were tested successively for their agonist and antagonist activities on human PAR-2 (hPAR-2) receptor expressed in HEK-293 T cells in an endogenous manner. Compounds exert agonist activity if, by themselves in absence of the 2-Furoyl-LIGRLO-NH2 peptide (selective hPAR-2 agonist), they activate PAR-2; they exert antagonist activity if they decrease the action of the 2-Furoyl-LIGRLO-NH2 peptide on the receptor. The assay used to determine compound activity is based on calcium measurement.
Cell Culture: HEK-293 T cells were maintained in Dulbecco's Modified Eagle's Medium supplemented with 10% Foetal Calf Serum, 1% Penicillin/Streptomycin at 37° C./5% CO2. Flasks for tests (F75) are seeded with 6e+06 cells 24 h before the experiment at 37° C./5% CO2.
Calcium assay: Receptor activity was detected by changes in intracellular calcium measured using the fluorescent Ca^2+ sensitive dye, Fluo4AM (Molecular Probes).
The day of the assay, medium was replaced by assay buffer (HBSS 1× (Gibco 14175-053), Hepes 20 mM, MgSO4-7H2O 1 mM, Na2CO3 3.3 mM, CaCl2-2H2O 1.3 mM, 0.5% BSA, Probenecid 2.5 mM, 0.1 mg/mL Pluronic Acid) and complemented with 1 μM Fluo4AM and cells were incubated during 1:30 h at 37° C.
Cells were then detached, resuspended in assay buffer and seeded in 384 wells, transparent-flat bottom black walled plates (2e+04 cells per well). Plates were incubated at +22° C. for 20 min. Compounds stock solutions were prepared in 100% DMSO and dilutions in test buffer were carried out in polypropylene plates with a digital dispenser (D300e, Tecan). Compounds were added to the cells and intracellular Ca^2+ measurements were collected at the same time on FLIPR Tetra® (Molecular Devices) with specific filters (Exc: 470-495 nm/Em: 515-575 nm).
Agonist and antagonist activities of compounds were consecutively evaluated on the same cell plate. Agonist activity was first measured after 10 min incubation with the compound alone. Then, cells were stimulated by an EC80 of the 2-Furoyl-LIGRLO-NH2 peptide and fluorescence was recorded for an additional 5 min. EC80 of the 2-Furoyl-LIGRLO-NH2 peptide was the concentration giving 80% of the maximal 2-Furoyl-LIGRLO-NH2 response. Agonist activities are evaluated in comparison to basal signals evoked by assay buffer or maximal 2-Furoyl-LIGRLO-NH2 response. […] Antagonist activities are evaluated in comparison to basal signals evoked by assay buffer or EC80 of 2-Furoyl-LIGRLO-NH2 alone.
For `COC(=O)c1c(C)cc(N2CCN(C(=O)c3ccc4c(n3)c(CC(C)C)nn4-c3ccc(Cl)c(F)c3)C(C)(C)C2)nc1C` [Example 64, methyl 6-(4-(1-(4-chloro-3-fluorophenyl)-3-isobutyl-1H-pyrazolo[4,3-b]pyridine-5-carbonyl)-3,3-dimethylpiperazin-1-yl)-2,4-dimethylnicotinate], the pIC50 was less than 5.00. Work on `Cc1cc(N2CCN(C(=O)c3ccc4c(n3)c(CC(C)C)nn4-c3ccc(Cl)c(F)c3)C(C)(C)C2)nc(C)c1C(=O)O` [Example 65, 6-(4-(1-(4-chloro-3-fluorophenyl)-3-isobutyl-1H-pyrazolo[4,3-b]pyridine-5-carbonyl)-3,3-dimethylpiperazin-1-yl)-2,4-dimethylnicotinic acid] yielded a pIC50 of 5.00 to 7.70. `CC(C)Cc1nn(-c2cccc(Cl)c2)c2ccc(C(=O)N3CCNC(=O)C3(C)C)nc12` [Example 67, 4-(1-(3-chlorophenyl)-3-isobutyl-1H-pyrazolo[4,3-b]pyridine-5-carbonyl)-3,3-dimethylpiperazin-2-one] gave a pIC50 of 5.00 to 7.70. In the case of `CC(C)Cc1nn(-c2ccc(Cl)c(F)c2)c2ccc(C(=O)N3CCC(C(=O)O)C(C)(C)C3)nc12` (stereo not shown) [Example 69, 1-(1-(4-chloro-3-fluorophenyl)-3-isobutyl-1H-pyrazolo[4,3-b]pyridine-5-carbonyl)-3,3-dimethylpiperidine-4-carboxylic acid], the pIC50 was less than 5.00. In the case of `CC(C)Cc1nn(-c2ccc(Cl)c(F)c2)c2ccc(C(=O)N3CCC4(CC3)NC(=O)NC4=O)nc12` [Example 70, 8-(1-(4-chloro-3-fluorophenyl)-3-isobutyl-1H-pyrazolo[4,3-b]pyridine-5-carbonyl)-1,3,8-triazaspiro[4.5]decane-2,4-dione], the pIC50 was less than 5.00. With `Cc1nn(-c2ccc(Cl)c(F)c2)c2ccc(C(=O)N3CCNC(=O)C3(C)C)nc12` [Example 71, 4-(1-(4-chloro-3-fluorophenyl)-3-methyl-1H-pyrazolo[4,3-b]pyridine-5-carbonyl)-3,3-dimethylpiperazin-2-one] the pIC50 was 5.00 to 7.70. `CC1(C)C(=O)NCCN1C(=O)c1ccc2c(n1)c(C1CCOCC1)nn2-c1ccc(Cl)c(F)c1` [Example 72, 4-(1-(4-chloro-3-fluorophenyl)-3-(tetrahydro-2H-pyran-4-yl)-1H-pyrazolo[4,3-b]pyridine-5-carbonyl)-3,3-dimethylpiperazin-2-one] showed a pIC50 of 5.00 to 7.70. `CC(C)Cc1nn(-c2ccc(Cl)cc2Cl)c2ccc(C(=O)N3CCNC(=O)C3(C)C)nc12` [Example 73, 4-(1-(2,4-dichlorophenyl)-3-isobutyl-1H-pyrazolo[4,3-b]pyridine-5-carbonyl)-3,3-dimethylpiperazin-2-one] gave a pIC50 of 5.00 to 7.70. With `CC(C)Cc1nn(-c2ccccc2Cl)c2ccc(C(=O)N3CCNC(=O)C3(C)C)nc12` [Example 74, 4-(1-(2-chlorophenyl)-3-isobutyl-1H-pyrazolo[4,3-b]pyridine-5-carbonyl)-3,3-dimethylpiperazin-2-one] the pIC50 was less than 5.00. With `CC(C)(C)c1nn(-c2ccc(Cl)c(F)c2)c2ccc(C(=O)N3CCNC(=O)C3(C)C)nc12` [Example 75] the pIC50 was 5.00 to 7.70. `CC1(C)C(=O)NCCN1C(=O)c1ccc2c(n1)c(C1CCCC1)nn2-c1ccc(Cl)c(F)c1` [Example 76, 4-(1-(4-chloro-3-fluorophenyl)-3-cyclopentyl-1H-pyrazolo[4,3-b]pyridine-5-carbonyl)-3,3-dimethylpiperazin-2-one] showed a pIC50 of 5.00 to 7.70. For `CC1(C)C(=O)NCCN1C(=O)c1ccc2c(n1)c(C1CC1)nn2-c1ccc(Cl)c(F)c1` [Example 77, 4-(1-(4-chloro-3-fluorophenyl)-3-cyclopropyl-1H-pyrazolo[4,3-b]pyridine-5-carbonyl)-3,3-dimethylpiperazin-2-one], the pIC50 was 5.00 to 7.70. `CC(C)Cc1nn(Cc2ccc(Cl)c(F)c2)c2ccc(C(=O)N3CCNC(=O)C3(C)C)nc12` [Example 78, 4-(1-(4-chloro-3-fluorobenzyl)-3-isobutyl-1H-pyrazolo[4,3-b]pyridine-5-carbonyl)-3,3-dimethylpiperazin-2-one] was tested, and the pIC50 was less than 5.00. `CC(C)(C)c1nn(-c2ccc(Cl)c(F)c2)c2ncc(C(=O)N3CCNC(=O)C3(C)C)cc12` [Example 80, 4-(3-(tert-butyl)-1-(4-chloro-3-fluorophenyl)-1H-pyrazolo[3,4-b]pyridine-5-carbonyl)-3,3-dimethylpiperazin-2-one] was tested, and the pIC50 was 5.00 to 7.70. For `Cc1cc2c(nc1C(=O)N1CCNC(=O)C1(C)C)c(CC(C)C)nn2-c1ccc(Cl)c(F)c1` [Example 81], the pIC50 was less than 5.00. For `CC(C)Cn1nc(-c2ccc(Cl)c(F)c2)c2ccc(C(=O)N3CCNC(=O)C3(C)C)cc21` [Example 83, 4-(3-(4-chloro-3-fluorophenyl)-1-isobutyl-1H-indazole-6-carbonyl)-3,3-dimethylpiperazin-2-one], the pIC50 was 5.00 to 7.70. In the case of `CC(C)Cn1cc(-c2ccc(Cl)cc2Cl)c2ccc(C(=O)N3CCNC(=O)C3(C)C)nc21` [Example 84, 4-(3-(2,4-dichlorophenyl)-1-isobutyl-1H-pyrrolo[2,3-b]pyridine-6-carbonyl)-3,3-dimethylpiperazin-2-one], the pIC50 was 5.00 to 7.70. For `CC(C)Cc1nn(-c2ccc(Cl)cc2)c2ccc(C(=O)N3CCNC(=O)C3(C)C)nc12` [Example 85, 4-(1-(4-chlorophenyl)-3-isobutyl-1H-pyrazolo[4,3-b]pyridine-5-carbonyl)-3,3-dimethylpiperazin-2-one], the pIC50 was 5.00 to 7.70. With `Cc1cc(N2CCN(C(=O)c3ccc4c(-c5ccc(Cl)c(F)c5)nn(C(C)(C)C)c4n3)C(C)(C)C2)nc(C)c1C(=O)O` [Example 87, 6-(4-(1-(tert-butyl)-3-(4-chloro-3-fluorophenyl)-1H-pyrazolo[3,4-b]pyridine-6-carbonyl)-3,3-dimethylpiperazin-1-yl)-2,4-dimethylnicotinic acid] the pIC50 was 5.00 to 7.70. `CC(C)Cc1nn(-c2ccc(Cl)c(F)c2)c2ccc(C(=O)N3CCNC(=O)C3)nc12` [Example 88, 4-(1-(4-chloro-3-fluorophenyl)-3-isobutyl-1H-pyrazolo[4,3-b]pyridine-5-carbonyl)piperazin-2-one] gave a pIC50 of less than 5.00. With `CC(C)Cn1cc(C2=CCN(C)CC2)c2ccc(C(=O)N3CCNC(=O)C3(C)C)nc21` [Example 91, 4-(1-isobutyl-3-(1-methyl-1,2,3,6-tetrahydropyridin-4-yl)-1H-pyrrolo[2,3-b]pyridine-6-carbonyl)-3,3-dimethylpiperazin-2-one hydrochloride] the pIC50 was less than 5.00. `CC(C)Cc1nn(-c2ccc(Cl)c(F)c2)c2ccc(C(=O)N3CCC4(CC3)C(=O)NCN4c3ccccc3)nc12` [Example 94, 8-(1-(4-chloro-3-fluorophenyl)-3-isobutyl-1H-pyrazolo[4,3-b]pyridine-5-carbonyl)-1-phenyl-1,3,8-triazaspiro[4.5]decan-4-one] gave a pIC50 of less than 5.00. `Cc1cc(N2CCN(C(=O)c3ccc4c(-c5ccc(Cl)c(F)c5)cn(CC(C)C)c4n3)C(C)(C)C2)nc(C)c1C(=O)O` [Example 95, 6-(4-(3-(4-chloro-3-fluorophenyl)-1-isobutyl-1H-pyrrolo[2,3-b]pyridine-6-carbonyl)-3,3-dimethylpiperazin-1-yl)-2,4-dimethylnicotinic acid] gave a pIC50 greater than 7.70. Work on `CC(C)n1cc(-c2ccc(Cl)c(F)c2)c2ccc(C(=O)N3CCNC(=O)C3(C)C)nc21` [Example 96, 4-(3-(4-chloro-3-fluorophenyl)-1-isopropyl-1H-pyrrolo[2,3-b]pyridine-6-carbonyl)-3,3-dimethylpiperazin-2-one] yielded a pIC50 greater than 7.70. In the case of `Cc1cc(N2CCN(C(=O)c3ccc4c(-c5ccc(Cl)c(F)c5)cn(C(C)C)c4n3)C(C)(C)C2)nc(C)c1C(=O)O` [Example 97, 6-(4-(3-(4-chloro-3-fluorophenyl)-1-isopropyl-1H-pyrrolo[2,3-b]pyridine-6-carbonyl)-3,3-dimethylpiperazin-1-yl)-2,4-dimethyinicotinic acid], the pIC50 was greater than 7.70.

From patent publication US20240066027A1 (DOMAIN THERAPEUTICS, priority 2020, published 2024)
